Results taken from US12595239B2, “Substituted isoxazoline derivatives” (BASF SE, priority 2021, dated 2026).

What was measured:
Type in all cases: in vivo
Anthonomus grandis = test: B.1 Boll weevil (Anthonomus grandis), 96-well microtiter plate diet test; conditions: 120 h, egg and larval mortality, 5 days, read-out: mortality in comparison with untreated controls
Method: For evaluating control of boll weevil, the test unit consisted of 96-well-microtiter plates containing an insect diet and 5-10 A. grandis eggs.
The compounds were formulated using a solution containing 75% v/v water and 25% v/v DMSO. Different concentrations of formulated compounds were sprayed onto the insect diet at 5 μl, using a custom-built micro atomizer, at two replications.
After application, microtiter plates were incubated at about 25±1° C. and about 75±5% relative humidity for 5 days. Egg and larval mortality were then visually assessed.

Myzus persicae = test: B.3 Green Peach Aphid (mixed life stages), systemic artificial diet test; conditions: 72 h, treated aphid diet, 3 days, read-out: mortality in comparison with untreated controls
Source text: For evaluating control of Green Peach Aphid through systemic means the test unit consisted of 96-well-microtiter plates containing liquid artificial diet under an artificial membrane. The compounds were formulated using a solution containing 75% v/v water and 25% v/v DMSO. Different concentrations of formulated compounds were pipetted into the aphid diet, using a custom-built pipette, at two replications. After application, 5-8 adult aphids were placed on the artificial membrane inside the microtiter plate wells. The aphids were then allowed to suck on the treated aphid diet and incubated at about 23±1° C. and about 50±5% relative humidity for 3 days. Aphid mortality and fecundity was then visually assessed.

Heliothis virescens = test: B.4 Tobacco Budworm, microtiter plate diet test; conditions: 120 h, egg and larval mortality, 5 days, read-out: mortality in comparison with untreated controls
Method: For evaluating control of Tobacco Budworm, the test unit consisted of 96-well-microtiter plates containing an insect diet and 15-25 H. virescens eggs. The compounds were formulated using a solution containing 75% v/v water and 25% v/v DMSO. Different concentrations of formulated compounds were sprayed onto the insect diet at 10 μl, using a custom-built micro atomizer, at two replications. After application, microtiter plates were incubated at about 28±1° C. and about 80±5% relative humidity for 5 days. Egg and larval mortality was then visually assessed.

Aedes aegypti = test: whole plant or invertebrate; conditions: 48 h, larval mortality, 2 days, read-out: mortality in comparison with untreated controls
Method: For evaluating control of Yellow Fever Mosquito, the test unit consisted of 96-well-microtiter plates containing 200 μl of tap water per well and 5-15 freshly hatched A. aegypti larvae. The active compounds were formulated using a solution containing 75% (v/v) water and 25% (v/v) DMSO. Different concentrations of formulated compounds or mixtures were sprayed onto the insect diet at 2.5 μl, using a custom-built micro atomizer, at two replications.
After application, microtiter plates were incubated at 28±1° C., 80±5% RH for 2 days. Larval mortality was then visually assessed.

Plutella xylostella = test: B.6 Diamond Back Moth, cabbage leaf disc dip test; conditions: foliar, 3rd instar larvae, 72 hours after treatment, read-out: mortality in comparison with untreated controls
Method: The active compound was dissolved at the desired concentration in a mixture of 1:1 (vol:vol) distilled water:acetone. Surfactant (Kinetic) was added at a rate of 0.01% (vol/vol). The test solution was prepared at the day of use. Cabbage leaf discs (60 mm in diameter) were dipped in test solution and air-dried. Treated leaves were placed in petri dishes lined with moistened filter paper and inoculated with ten 3rd instar larvae. Mortality was recorded 72 hours after treatment. Feeding damages were also recorded using a scale of 0-100%.

Dichromothrips corbetti = test: B.7 Orchid Thrips, floral-immersion test; conditions: adult thrips, 72 hours after treatment, read-out: mortality in comparison with untreated controls
Method: Dichromothrips corbetti adults used for bioassay were obtained from a colony maintained continuously under laboratory conditions. For testing purposes, the test compound was diluted in a 1:1 mixture of acetone:water (vol:vol), plus Kinetic at a rate of 0.01% v/v.
Thrips potency of each compound was evaluated by using a floral-immersion technique. Each orchid petal was dipped into treatment solution and allowed to dry in Petri dishes. Treated petals were placed into individual re-sealable plastic along with about 20 adult thrips. All test arenas were held under dark condition and a temperature of about 28° C. for duration of the assay. The percent mortality was recorded 72 hours after treatment.

Nezara viridula = test: B.8 Green Soldier Stink Bug, soybean pod spray test; conditions: 120 h, late 3rd instar, after 5 days, read-out: mortality in comparison with untreated controls
Method: The active compound was dissolved at the desired concentration in a mixture of 1:1 (vol:vol) distilled water:aceteone. Surfactant (Kinetic) was added at a rate of 0.01% (vol/vol). The test solution was prepared at the day of use. Soybean pods were placed in 90×50 mm glass Petri dishes lined with moistened filter paper and inoculated with ten late 3rd instar N. viridula. Using a hand atomizer, an approximately 2 ml solution was sprayed into each Petri dish. Treated setup was kept at about 25-26° C. and relative humidity of about 65-70%. Percent mortality was recorded after 5 days.

Nephotettix virescens = test: B.9 Rice Green Leafhopper, rice seedling spray test; conditions: adults, after 72 hours, read-out: mortality in comparison with untreated controls
Method: Four to five-week old rice seedlings with cut upper leaf portion were cleaned and washed 24 hours before spraying. The active compounds were formulated in 1:1 acetone:water (vol:vol), and 0.01% vol/vol surfactant (Kinetic) was added. Potted rice seedlings were sprayed with 5-6 ml test solution, air dried, covered with Mylar cages and inoculated with 10 adults. Treated rice plants were kept at about 28-29° C. and relative humidity of about 50-60%. Percent mortality was recorded after 72 hours.

Spodoptera eridania = test: B.11 Southern Armyworm 2nd instar larvae, lima bean foliar spray test; conditions: 96 h, 4 days after treatment, read-out: mortality in comparison with untreated controls
Method: The active compounds were formulated by a Tecan liquid handler in 100% cyclohexanone as a 10′000 ppm solution supplied in tubes. The 10′000 ppm solution was serially diluted in 100% cyclohexanone to make interim solutions. These served as stock solutions for which final dilutions were made by the Tecan in 50% acetone:50% water (v/v) into 10 or 20 ml glass vials. A nonionic surfactant (Kinetic®) was included in the solution at a volume of 0.01% (v/v). The vials were then inserted into an automated electrostatic sprayer equipped with an atomizing nozzle for application to plants/insects. Lima bean plants (variety Sieva) were grown 2 plants to a pot and selected for treatment at the 1st true leaf stage. Test solutions were sprayed onto the foliage by an automated electrostatic plant sprayer equipped with an atomizing spray nozzle. The plants were dried in the sprayer fume hood and then removed from the sprayer. Each pot was placed into perforated plastic bags with a zip closure. Ten to 11 armyworm larvae were placed into the bag and the bags zipped closed. Test plants were maintained in a growth room at about 25° C. and about 20-40% relative humidity for 4 days, avoiding direct exposure to fluorescent light (14:10 light:dark photo-period) to prevent trapping of heat inside the bags. Mortality and reduced feeding were assessed 4 days after treatment, compared to untreated control plants.

[1] = system: Trialeurodes vaporarirorum; test: B.2 Greenhouse Whitefly, microtiter plate eggplant leaf disk test; conditions: foliar, 144 h, mortality of hatched crawlers, 6 days, read-out: mortality in comparison with untreated controls
Method: For evaluating control of Greenhouse Whitefly, the test unit consisted of 96-well-microtiter plates containing a leaf disk of eggplant leaf disk with Whitefly eggs. The compounds or mixtures were formulated using a solution containing 75% water and 25% DMSO. Different concentrations of formulated were sprayed onto the insect diet at 2.5 μl, using a custom-built micro atomizer, at two replications. After application, microtiter plates were incubated at 23±1° C., 65±5% RH for 6 days. Mortality of hatched crawlers was then visually assessed.

Tetranychus kanzawai = test: B.10 Red Spider Mite, cowpea bean spray test; conditions: 72 hours after treatment, read-out: mortality in comparison with untreated controls
Method: The active compound was dissolved at the desired concentration in a mixture of 1:1 (vol:vol) distilled water:acetone. Add surfactant (Kinetic) was added at a rate of 0.01% (vol/vol). The test solution was prepared at the day of use. Potted cowpea beans of 4-5 days of age were cleaned with tap water and sprayed with I-2 ml of the test solution using air driven DeVilbiss® hand atomizer at 20-30 psi (≈1,38 to 2,07 bar). The treated plants were allowed to air dry and afterwards inoculated with 30 or more mites by clipping a cassava leaf section from rearing population. Treated plants were placed inside a holding room at about 25-26° C. and about 65-70% relative humidity. Percent mortality was assessed 72 hours after treatment.

Bemisia argentifolii = test: B.12 Silverleaf Whitefly (adults), cotton plant spray test; conditions: 72 h, 3 days after treatment, read-out: mortality in comparison with untreated controls
Method: The active compounds were formulated by a Tecan liquid handler in 100% cyclohexanone as a 10,000-ppm solution supplied in tubes. The 10,000-ppm solution was serially diluted in 100% cyclohexanone to make interim solutions. These served as stock solutions for which final dilutions were made by the Tecan in 50% acetone:50% water (v/v) into 5 or 10 ml glass vials. A nonionic surfactant (Kinetic®) was included in the solution at a volume of 0.01% (v/v). The vials were then inserted into an automated electrostatic sprayer equipped with an atomizing nozzle for application to plants/insects. Cotton plants at the cotyledon stage (one plant per pot) were sprayed by an automated electrostatic plant sprayer equipped with an atomizing spray nozzle. The plants were dried in the sprayer fume hood and then removed from the sprayer. Each pot was placed into a plastic cup and about 10 to 12 whitefly adults (approximately 3-5 days old) were introduced. The insects were collected using an aspirator and a nontoxic Tygon® tubing connected to a barrier pipette tip. The tip, containing the collected insects, was then gently inserted into the soil containing the treated plant, allowing insects to crawl out of the tip to reach the foliage for feeding. Cups were covered with a reusable screened lid. Test plants were maintained in a growth room at about 25° C. and about 20-40% relative humidity for 3 days, avoiding direct exposure to fluorescent light (14:10 light:dark photoperiod) to prevent trapping of heat inside the cup. Mortality was assessed 3 days after treatment, compared to untreated control plants.

Nc1c(F)ccc(NC(=O)c2cc(NC3=NOC(c4cc(Cl)cc(Cl)c4)(C(F)(F)F)C3)ccc2Cl)c1F (stereo not shown) [I-4, N-(3-amino-2,4-difluoro-phenyl)-2-chloro-5-[[5-(3,5-dichlorophenyl)-5-(trifluoromethyl)-4H-isoxazol-3-yl]amino]benzamide]
≥ 75%: mortality at 2500 ppm (Anthonomus grandis) | mortality at 2500 ppm (Myzus persicae) | mortality at 2500 ppm (Heliothis virescens) | mortality at 2500 ppm (Aedes aegypti) | mortality at 300 ppm (Plutella xylostella) | mortality at 300 ppm (Dichromothrips corbetti) | mortality at 300 ppm (Nezara viridula)

N#CC1(NC(=O)c2cc(N(CC3CC3)C3=NOC(c4cc(Cl)cc(Cl)c4)(C(F)(F)F)C3)ccc2Cl)CC1 (stereo not shown) [I-60, 2-chloro-N-(1-cyanocyclopropyl)-5-[cyclopropylmethyl-[5-(3,5-dichlorophenyl)-5-(trifluoromethyl)-4H-isoxazol-3-yl]amino]benzamide]
≥ 75%: mortality at 300 ppm (Plutella xylostella) | mortality at 300 ppm (Dichromothrips corbetti) | mortality at 300 ppm (Nezara viridula) | mortality at 300 ppm (Nephotettix virescens) | mortality at 300 ppm (Spodoptera eridania)

CCN1OC[C@@H](NC(=O)c2cc(N(C)C3=NOC(c4cc(Cl)c(F)c(Cl)c4)(C(F)(F)F)C3)ccc2Cl)C1=O (stereo partly drawn) [I-119, 2-chloro-5-[[5-(3,5-dichloro-4-fluoro-phenyl)-5-(trifluoromethyl)-4H-isoxazol-3-yl]-methyl-amino]-N-[(4R)-2-ethyl-3-oxo-isoxazolidin-4-yl]benzamide]
≥ 75%: mortality at 300 ppm (Plutella xylostella) | mortality at 300 ppm (Dichromothrips corbetti) | mortality at 300 ppm (Nezara viridula) | mortality at 300 ppm (Nephotettix virescens)

O=C(Nc1ccc(F)cc1F)c1cc(NC2=NOC(c3cccc(C(F)(F)F)c3)(C(F)(F)F)C2)ccc1Cl (stereo not shown) [I-38, 2-chloro-N-(2,4-difluorophenyl)-5-[[5-(trifluoromethyl)-5-[3-(trifluoromethyl)phenyl]-4H-isoxazol-3-yl]amino]benzamide]
≥ 75%: mortality at 2500 ppm [1] | mortality at 300 ppm (Plutella xylostella) | mortality at 300 ppm (Dichromothrips corbetti) | mortality at 300 ppm (Nezara viridula) | mortality at 300 ppm (Spodoptera eridania)

O=C(NC1C[S+]([O-])C1)c1cc(NC2=NOC(c3cc(Cl)c(F)c(Cl)c3)(C(F)(F)F)C2)ccc1Cl (stereo not shown) [I-61, 2-chloro-5-[[5-(3,5-dichloro-4-fluoro-phenyl)-5-(trifluoromethyl)-4H-isoxazol-3-yl]amino]-N-(1-oxothietan-3-yl)benzamide]
≥ 75%: mortality at 300 ppm (Plutella xylostella) | mortality at 300 ppm (Dichromothrips corbetti) | mortality at 300 ppm (Tetranychus kanzawai) | mortality at 300 ppm (Spodoptera eridania)

CCOC(=O)N(C1=NOC(c2cc(Cl)cc(Cl)c2)(C(F)(F)F)C1)c1ccc(Cl)c(C(=O)NC2(C#N)CC2)c1 (stereo not shown) [I-111, ethyl N-[4-chloro-3-[(1-cyanocyclopropyl)carbamoyl]phenyl]-N-[5-(3,5-dichlorophenyl)-5-(trifluoromethyl)-4H-isoxazol-3-yl]carbamate]
≥ 75%: mortality at 300 ppm (Plutella xylostella) | mortality at 300 ppm (Dichromothrips corbetti) | mortality at 300 ppm (Nezara viridula) | mortality at 300 ppm (Tetranychus kanzawai) | mortality at 300 ppm (Spodoptera eridania) | mortality at 300 ppm (Bemisia argentifolii)
